Our source for the IC50 values is US11878966B2, “Substituted 4-benzyl and 4-benzoyl piperidine derivates” (89BIO LTD, priority 2015, dated 2024).

In this assay the target is T1, recombinant human baculovirus-expressed GST-tagged FASN (Homo sapiens, UniProt P49327).
T1 construct: GST; host or cells: baculovirus expression system (insect cells implied)
The experiment in a line: FASN enzyme activity assay: fluorescence-based detection of CoA with CPM. To be noted: 5 nM FASN, 150 μM NADPH, 10 μM acetyl-CoA, 25 μM malonyl-CoA, 90 minutes incubation. The format is biochemical. In outline: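 GST-tagged human FASN (5 nM, baculovirus-expressed) in 50 mM HEPES pH 7.5 with 150 μM NADPH, 10 μM acetyl-CoA and 25 μM malonyl-CoA, 0.5% DMSO, started with malonyl-CoA and run 90 min. CoA was detected with CPM (30 min; ex 390/em 530 nm). IC50 came from sigmoidal variable-slope fits of % inhibition.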

What is called IC50 is the concentration that inhibits the measured activity by half.

T1 sequence (P49327 whole entry): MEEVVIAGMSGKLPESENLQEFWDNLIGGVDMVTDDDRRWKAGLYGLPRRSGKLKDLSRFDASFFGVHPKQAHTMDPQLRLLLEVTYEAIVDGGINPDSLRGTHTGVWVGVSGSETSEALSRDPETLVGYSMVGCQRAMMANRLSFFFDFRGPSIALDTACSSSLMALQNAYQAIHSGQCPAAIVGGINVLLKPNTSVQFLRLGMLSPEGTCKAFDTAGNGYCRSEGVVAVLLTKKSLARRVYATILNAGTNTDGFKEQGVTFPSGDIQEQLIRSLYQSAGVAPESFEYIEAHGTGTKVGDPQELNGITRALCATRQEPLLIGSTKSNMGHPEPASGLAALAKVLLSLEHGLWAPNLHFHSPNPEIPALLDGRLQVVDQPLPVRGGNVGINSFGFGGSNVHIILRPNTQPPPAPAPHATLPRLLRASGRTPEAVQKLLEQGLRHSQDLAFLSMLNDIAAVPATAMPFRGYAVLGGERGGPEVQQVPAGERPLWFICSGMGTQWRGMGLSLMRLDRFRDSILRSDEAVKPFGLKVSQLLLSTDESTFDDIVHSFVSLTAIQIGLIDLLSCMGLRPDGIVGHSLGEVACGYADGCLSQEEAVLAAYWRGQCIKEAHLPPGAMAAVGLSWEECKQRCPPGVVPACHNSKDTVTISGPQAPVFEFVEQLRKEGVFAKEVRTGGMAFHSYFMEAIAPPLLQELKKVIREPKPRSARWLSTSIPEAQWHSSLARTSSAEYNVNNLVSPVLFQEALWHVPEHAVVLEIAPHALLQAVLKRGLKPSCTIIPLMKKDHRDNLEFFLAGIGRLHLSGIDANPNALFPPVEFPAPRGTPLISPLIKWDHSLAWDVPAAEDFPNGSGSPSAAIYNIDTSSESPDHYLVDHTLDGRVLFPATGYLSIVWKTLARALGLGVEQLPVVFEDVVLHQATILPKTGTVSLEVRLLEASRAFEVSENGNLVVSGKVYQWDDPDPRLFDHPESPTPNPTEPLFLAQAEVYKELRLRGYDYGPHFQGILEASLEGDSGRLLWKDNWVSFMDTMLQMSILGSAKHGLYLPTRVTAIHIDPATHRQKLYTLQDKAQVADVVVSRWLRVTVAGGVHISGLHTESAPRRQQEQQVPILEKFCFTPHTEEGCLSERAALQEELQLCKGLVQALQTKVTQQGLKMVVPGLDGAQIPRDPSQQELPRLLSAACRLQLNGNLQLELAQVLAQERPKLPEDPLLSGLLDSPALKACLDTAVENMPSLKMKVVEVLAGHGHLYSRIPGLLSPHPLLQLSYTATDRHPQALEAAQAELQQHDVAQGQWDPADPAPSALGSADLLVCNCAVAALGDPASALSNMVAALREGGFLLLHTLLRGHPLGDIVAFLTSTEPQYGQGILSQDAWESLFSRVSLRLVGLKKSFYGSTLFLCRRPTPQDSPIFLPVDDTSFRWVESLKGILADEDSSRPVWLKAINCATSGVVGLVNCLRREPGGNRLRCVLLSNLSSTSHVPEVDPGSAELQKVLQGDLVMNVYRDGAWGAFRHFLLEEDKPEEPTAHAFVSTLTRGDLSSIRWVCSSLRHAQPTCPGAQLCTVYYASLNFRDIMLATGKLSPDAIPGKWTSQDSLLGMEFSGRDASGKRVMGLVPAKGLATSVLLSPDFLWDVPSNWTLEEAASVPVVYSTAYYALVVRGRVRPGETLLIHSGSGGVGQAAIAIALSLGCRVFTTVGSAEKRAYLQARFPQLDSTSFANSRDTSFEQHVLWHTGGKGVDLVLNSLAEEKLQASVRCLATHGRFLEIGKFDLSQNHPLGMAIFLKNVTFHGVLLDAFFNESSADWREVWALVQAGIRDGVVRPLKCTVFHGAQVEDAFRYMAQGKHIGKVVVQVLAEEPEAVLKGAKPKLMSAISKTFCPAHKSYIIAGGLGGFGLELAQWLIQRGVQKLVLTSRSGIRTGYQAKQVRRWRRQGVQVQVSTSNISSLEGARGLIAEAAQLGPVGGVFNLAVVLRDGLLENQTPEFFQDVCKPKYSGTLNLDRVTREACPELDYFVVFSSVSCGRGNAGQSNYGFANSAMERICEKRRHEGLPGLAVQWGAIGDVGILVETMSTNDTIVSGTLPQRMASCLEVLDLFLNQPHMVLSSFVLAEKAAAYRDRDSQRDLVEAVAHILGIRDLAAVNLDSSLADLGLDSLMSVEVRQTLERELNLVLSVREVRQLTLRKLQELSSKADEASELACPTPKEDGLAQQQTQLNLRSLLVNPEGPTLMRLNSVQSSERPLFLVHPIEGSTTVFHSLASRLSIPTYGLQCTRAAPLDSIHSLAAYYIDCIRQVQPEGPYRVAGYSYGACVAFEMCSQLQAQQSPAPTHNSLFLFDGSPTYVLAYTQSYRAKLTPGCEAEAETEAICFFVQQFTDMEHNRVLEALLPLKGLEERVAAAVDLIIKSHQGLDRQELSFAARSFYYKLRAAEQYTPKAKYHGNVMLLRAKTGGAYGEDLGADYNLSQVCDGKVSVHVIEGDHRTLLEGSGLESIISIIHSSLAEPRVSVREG

With `CCC(=O)N1CCC(C(C)(O)c2ccc(-c3ccc4cnccc4c3)cc2)CC1` (stereo not drawn) [Example 131, 1-{4-[1-Hydroxy-1-(4-isoquinolin-6-yl-phenyl)-ethyl]-piperidin-1-yl}-propan-1-one], the IC50 fell in the range of 100 to 999 nM. For the compound `CCC(=O)N1CCC(C(C)(O)c2ccc(-c3ccc4cnccc4c3)cc2F)CC1` (stereo not drawn) [Example 132, 1-{4-[1-(2-Fluoro-4-isoquinolin-6-yl-phenyl)-1-hydroxy-ethyl]-piperidin-1-yl}-propan-1-one], the IC50 fell in the range of 1 to 99 nM.

`CCC(=O)N1CCC(C(=O)c2ccc(-c3ccc4cnccc4c3)cc2)C1` (stereo not drawn) [Example 133, 1-[3-(4-Isoquinolin-6-yl-benzoyl)-pyrrolidin-1-yl]-propan-1-one]: the IC50 lay within 1000 to 10000 nM. The figure for `CCC(=O)N1CCC(C(C)(O)c2ccc(-c3ccc4cnccc4c3)cc2)C1` (stereo not drawn) [Example 134, 1-{3-[1-Hydroxy-1-(4-isoquinolin-6-yl-phenyl)-ethyl]-pyrrolidin-1-yl}-propan-1-one] is 1000 to 10000 nM; for `CC(C)C(=O)N1CCC(C2(c3ccc(-c4ccc(CN(C)C)cc4)cc3)OCCO2)CC1` [Example 135, 1-{4-[2-(4′-Dimethylaminomethyl-biphenyl-4-yl)-1,3-dioxolan-2-yl]piperidin-1-yl}-2-methyl-propan-1-one] it is 1000 to 10000 nM. As for `CCC(=O)N1CCC(C2(c3ccc(-c4ccc(CN(C)C)cc4)cc3)OCCO2)CC1` [Example 136, 1-{4-[2-(4′-Dimethylaminomethyl-biphenyl-4-yl)-1,3-dioxolan-2-yl]-piperidin-1-yl}-propan-1-one], the IC50 lay within 1000 to 10000 nM. For `CN(C)Cc1ccc(-c2ccc(C3(C4CCN(C(=O)C5CC5)CC4)OCCO3)cc2)cc1` [Example 137, Cyclopropyl-{4-[2-(4′-dimethylaminomethyl-biphenyl-4-yl)-1,3-dioxolan-2-yl]-piperidin-1-yl}-methanone], the IC50 was in the range of 1000 to 10000 nM. With `CCC(=O)N1CCC(C(=O)c2c(F)cc(-c3ccc4cnccc4c3)cc2F)CC1` [Example 138, 1-[4-(2,6-Difluoro-4-isoquinolin-6-yl-benzoyl)-piperidin-1-yl]-propan-1-one] the figure was 100 to 999 nM; with `CCC(=O)N1CCC(C2(c3ccc(-c4cnc5ccccc5c4)cc3)OCCO2)CC1` [Example 139, 1-{4-[2-(4-Quinolin-3-yl-phenyl)-1,3-dioxolan-2-yl]-piperidin-1-yl}-propan-1-one], 1 to 99 nM; with `CC(C)C(=O)N1CCC(C2(c3ccc(-c4cnc5ccccc5c4)cc3)OCCO2)CC1` [Example 140, 2-Methyl-1-{4-[2-(4-quinolin-3-yl-phenyl)-1,3-dioxolan-2-yl]-piperidin-1-yl}-propan-1-one], 100 to 999 nM. Regarding `O=C(C1CC1)N1CCC(C2(c3ccc(-c4cnc5ccccc5c4)cc3)OCCO2)CC1` [Example 141, Cyclopropyl-(4-[2-(4-quinolin-3-yl-phenyl)-1,3-dioxolan-2-yl]-piperidin-1-yl)-methanone], the IC50 fell in the range of 100 to 999 nM. With `CCC(=O)N1CCC(C(=O)c2ccc(-c3ccc4cccnc4c3)cc2F)CC1` [Example 142, 1-[4-(2-Fluoro-4-quinolin-7-yl-benzoyl)-piperidin-1-yl]-propan-1-one] the figure was 100 to 999 nM; with `CCC(=O)N1CCC(C(=O)c2ccc(-c3cnc4ccccc4c3)cc2F)CC1` [Example 143, 1-[4-(2-Fluoro-4-quinolin-3-yl-benzoyl)piperidin-1-yl]propan-1-one], 1 to 99 nM; with `COC(=O)N1CCC(C(=O)c2ccc(-c3cnc4ccccc4c3)cc2F)CC1` [Example 144, 4-(2-Fluoro-4-quinolin-3-yl-benzoyl)piperidine-1-carboxylic Acid Methyl Ester], 1000 to 10000 nM. The figure for `O=C(N1CCC(O)(Cc2ccc(-c3cc4ccccc4cn3)cc2)CC1)N1CCCO1` [Example 145, (4-hydroxy-4-(4-(isoquinolin-3-yl)benzyl)piperidin-1-yl)(isoxazolidin-2-yl)methanone] is 1000 to 10000 nM; for `O=C([C@H]1CCCO1)N1CCC(O)(Cc2ccc(-c3cc4ccccc4cn3)cc2)CC1` [Example 146, [4-Hydroxy-4-(4-isoquinolin-3-yl-benzyl)-piperidin-1-yl]-(R)-tetrahydro-furan-2-yl-methanone] it is 100 to 999 nM. With `CCC(=O)N1CCC(F)(Cc2ccc(-c3cnc4ccccc4c3)cc2)CC1` [Example 161, 1-(4-fluoro-4-(4-(quinolin-3-yl)benzyl)piperidin-1-yl)propan-1-one] the figure was 1 to 99 nM; with `CCC(=O)N1CC=C(Cc2ccc(-c3cnc4ccccc4c3)cc2)CC1` [Example 162, 1-(4-(4-(quinolin-3-yl)benzyl)-5,6-dihydropyridin-1(2H)-yl)propan-1-one], 1 to 99 nM; with `CCC(=O)N1CCC(F)(Cc2ccc(-c3ccc4cccnc4c3)cc2)CC1` [Example 163, 1-(4-fluoro-4-(4-(quinolin-7-yl)benzyl)piperidin-1-yl)propan-1-one], 1 to 99 nM. Turning to `CCC(=O)N1CC=C(Cc2ccc(-c3ccc4cccnc4c3)cc2)CC1` [Example 164, 1-(4-(4-(quinolin-7-yl)benzyl)-5,6-dihydropyridin-1(2H)-yl)propan-1-one], the 50% inhibitory concentration (IC50) was 100 to 999 nM. The figure for `CCC(=O)N1CCC(F)(Cc2ccc(-c3ccc4cnccc4c3)cc2)CC1` [Example 165, 1-(4-fluoro-4-(4-(isoquinolin-6-yl)benzyl)piperidin-1-yl)propan-1-one] is 1 to 99 nM; for `CCC(=O)N1CC=C(Cc2ccc(-c3ccc4cnccc4c3)cc2)CC1` [Example 166, 1-(4-(4-(isoquinolin-6-yl)benzyl)-5,6-dihydropyridin-1(2H)-yl)propan-1-one] it is 100 to 999 nM; for `CCC(=O)N1CCC(F)(Cc2ccc(-c3cncc4ccccc34)cc2)CC1` [Example 167, 1-(4-fluoro-4-(4-(isoquinolin-4-yl)benzyl)piperidin-1-yl)propan-1-one] it is 1 to 99 nM.

For the compound `CCC(=O)N1CC=C(Cc2ccc(-c3cncc4ccccc34)cc2)CC1` [Example 168, 1-(4-(4-(isoquinolin-4-yl)benzyl)-5,6-dihydropyridin-1(2H)-yl)propan-1-one], the IC50 lay in the range of 1000 to 10000 nM.

Regarding `CCC(=O)N1CCC(F)(Cc2ccc(-c3ccc4occc4c3)cc2)CC1` [Example 169, 1-(4-(4-(benzofuran-5-yl)benzyl)-4-fluoropiperidin-1-yl)propan-1-one], the IC50 is 100 to 999 nM. Turning to `CCC(=O)N1CC=C(Cc2ccc(-c3ccc4occc4c3)cc2)CC1` [Example 170, 1-(4-(4-(benzofuran-5-yl)benzyl)-5,6-dihydropyridin-1(2H)-yl)propan-1-one], the concentration for half-maximal inhibition (IC50) fell in the range of 1 to 99 nM.

For the compound `O=C(C1CC1)N1CCC(F)(Cc2ccc(-c3cnc4ccccc4c3)cc2)CC1` [Example 171, Cyclopropyl(4-fluoro-4-(4-(quinolin-3-yl)benzyl)piperidin-1-yl)methanone], the IC50 is 1 to 99 nM. The figure for `O=C(C1CC1)N1CC=C(Cc2ccc(-c3cnc4ccccc4c3)cc2)CC1` [Example 172, Cyclopropyl(4-(4-(quinolin-3-yl)benzyl)-5,6-dihydropyridin-1(2H)-yl)methanone] is 100 to 999 nM.

With `O=C(C1CC1)N1CCC(F)(Cc2ccc(-c3ccc4cccnc4c3)cc2)CC1` [Example 173, Cyclopropyl(4-fluoro-4-(4-(quinolin-7-yl)benzyl)piperidin-1-yl)methanone], the IC50 is 100 to 999 nM.

On to `O=C(C1CC1)N1CC=C(Cc2ccc(-c3ccc4cccnc4c3)cc2)CC1` [Example 174], for which the IC50 lay within 100 to 999 nM. With `O=C(C1CC1)N1CCC(F)(Cc2ccc(-c3ccc4cnccc4c3)cc2)CC1` [Example 175, Cyclopropyl(4-fluoro-4-(4-(isoquinolin-6-yl)benzyl)piperidin-1-yl)methanone], the 50% inhibitory concentration (IC50) fell in the range of 1 to 99 nM. The figure for `O=C(C1CC1)N1CC=C(Cc2ccc(-c3ccc4cnccc4c3)cc2)CC1` [Example 176, Cyclopropyl(4-(4-(isoquinolin-6-yl)benzyl)-5,6-dihydropyridin-1(2H)-yl)methanone] is 100 to 999 nM; for `O=C(C1CC1)N1CCC(F)(Cc2ccc(-c3cncc4ccccc34)cc2)CC1` [Example 177, Cyclopropyl(4-fluoro-4-(4-(isoquinolin-4-yl)benzyl)piperidin-1-yl)methanone] it is 1 to 99 nM; for `O=C(C1CC1)N1CC=C(Cc2ccc(-c3cncc4ccccc34)cc2)CC1` [Example 178, Cyclopropyl(4-(4-(isoquinolin-4-yl)benzyl)-5,6-dihydropyridin-1(2H)-yl)methanone] it is 100 to 999 nM. With `O=C(C1CC1)N1CCC(F)(Cc2ccc(-c3ccc4occc4c3)cc2)CC1` [Example 179, (4-(4-(benzofuran-5-yl)benzyl)-4-fluoropiperidin-1-yl)(cyclopropyl)methanone] the figure was 100 to 999 nM.

On to `O=C(C1CC1)N1CC=C(Cc2ccc(-c3ccc4occc4c3)cc2)CC1` [Example 180, (4-(4-(benzofuran-5-yl)benzyl)-5,6-dihydropyridin-1(2H)-yl)(cyclopropyl)methanone], for which the IC50 fell in the range of 1000 to 10000 nM. With `Cc1c(-c2ccc(CC3(F)CCN(C(=O)[C@H]4CCCO4)CC3)cc2)cnc2ccccc12` [Example 181, (R)-(4-fluoro-4-(4-(4-methylquinolin-3-yl)benzyl)piperidin-1-yl)(tetrahydrofuran-2-yl)methanone] the figure was 1 to 99 nM; with `Cc1c(-c2ccc(CC3=CCN(C(=O)[C@H]4CCCO4)CC3)cc2)cnc2ccccc12` [Example 182, (R)-(4-(4-(4-methylquinolin-3-yl)benzyl)-5,6-dihydropyridin-1(2H)-yl)(tetrahydrofuran-2-yl)methanone], 1 to 99 nM; with `Cc1c(-c2ccc(CC3(F)CCN(C(=O)C4CC4)CC3)cc2)ccc2cccnc12` [Example 183, Cyclopropyl(4-fluoro-4-(4-(8-methylquinolin-7-yl)benzyl)piperidin-1-yl)methanone], 1 to 99 nM.
